US10047105B2, “Gyrase inhibitors” (Merck Sharp & Dohme Corp., priority 2009, dated 2018)
In brackets after ≈: the same amount, converted by molar mass.

Assays:
Format in all cases: cell-based
[1] = system: E. coli imp Benson BAS849; test: microbe, parasite or virus in culture; conditions: Escherichia coli, read-out: Antibacterial Potency MIC
A. baumannii ATCC 19606 = test: MIC, A. baumannii; conditions: Acinetobacter baumannii, ATCC19606, read-out: Antibacterial Potency MIC
S. pneumoniae ATCC 51916 = test: MIC, S. pneumoniae; conditions: for MIC Spn52: S. pneumoniae (Spn52), in µg/mL
K. pneumoniae 101 = test: MIC, K. pneumoniae 101; conditions: Klebsiella pneumoniae, read-out: Antibacterial Potency MIC
S. aureus ATCC 13709 = test: MIC, antibacterial potency, S. aureus; conditions: for MIC, SA: S. aureus (SA), in µg/mL
[2] = system: E. coli ATCC 25922 (EC8 + serum); test: MIC, E. coli + 20% mouse serum; conditions: Escherichia coli, ATCC25922; E. coli + serum (20% mouse serum); read-out: Antibacterial Potency MIC
H. influenzae ATCC 49247 = test: MIC, H. influenzae; conditions: Haemophilus influenzae, ATCC49247, read-out: Antibacterial Potency MIC
E. coli 8 ATCC 25922 = test: MIC, E. coli 8 (wt); conditions: for MIC EC8: E. coli 8 (EC8)
K. pneumoniae 11 = test: MIC, K. pneumoniae 11; conditions: Klebsiella pneumoniae, read-out: Antibacterial Potency MIC
P. aeruginosa ATCC 15692 = test: MIC, P. aeruginosa (wt); conditions: Pseudomonas aeruginosa, ATCC15692, read-out: Antibacterial Potency MIC
[3] = system: E. coli Δtolc BW25113 Δtolc; test: microbe, parasite or virus in culture; conditions: Escherichia coli, BW25113, read-out: Antibacterial Potency MIC
[4] = system: S. aureus ATCC 13709 (SA + serum); test: MIC, S. aureus + 20% mouse serum; conditions: Staphylococcus aureus, ATCC13709; S. aureus + serum (20% mouse serum); read-out: Antibacterial Potency MIC

Row | Structure (SMILES) | MIC Spn52 (S. pneumoniae ATCC 51916) | MIC, SA (S. aureus ATCC 13709) | MIC EC8 (E. coli 8 ATCC 25922) [µg/mL] | also measured
1 | CCc1[nH]c2nc(Sc3cnc4ccc[n+]([O-])c4c3)nc(N3CC4C(N)C4C3)c2c1Cl (stereo not drawn) [compound 701009] |  |  |  | MIC [1]: ≤ 0.5 µg/mL; MIC (A. baumannii ATCC 19606): 4 µg/mL (≈ 8.81 µM); MIC (S. pneumoniae ATCC 51916; Streptococcus pneumoniae, ATCC51916, S. pneumoniae, read-out: Antibacterial Potency MIC): ≤ 0.5 µg/mL; MIC (K. pneumoniae 101): ≤ 0.5 µg/mL; MIC (S. aureus ATCC 13709; Staphylococcus aureus, ATCC13709, S. aureus): ≤ 0.5 µg/mL; MIC [2]: 4 µg/mL; MIC (H. influenzae ATCC 49247): 2 µg/mL (≈ 4.41 µM); MIC (E. coli 8 ATCC 25922; Escherichia coli, ATCC25922, E. coli (wt), read-out: Antibacterial Potency MIC): 2 µg/mL (≈ 4.41 µM); MIC (K. pneumoniae 11): 32 µg/mL (≈ 70.5 µM); MIC (P. aeruginosa ATCC 15692): 4 µg/mL (≈ 8.81 µM); MIC [3]: ≤ 0.5 µg/mL; MIC [4]: ≤ 0.5 µg/mL
2 | CCc1[nH]c2nc(Sc3ccc4cc5c([n+]([O-])c4c3)CCN(C(=O)CCCC[C@@H]3SC[C@@H]4NC(=O)N[C@@H]43)C5)nc(N3CC4C(C3)C4(N)C(N)=O)c2c1Cl (stereo partly drawn) [701,229] | 32 | 4 | > 64 | 
3 | CCc1[nH]c2nc(Sc3ccc4c(c3)C(=O)NC4)nc(N3CC4C(C3)C4(N)C(N)=O)c2c1Cl (stereo not drawn) [700,973] | 2 | <=0.5 | > 64 | 
4 | CCc1[nH]c2nc(Sc3ccc4cc(C#N)c[n+]([O-])c4c3)nc(N3CC4C(N)C4C3)c2c1Cl (stereo not drawn) [701,010] | 1 | <=0.5 | > 16 | 
5 | CCc1[nH]c2nc(N3CCN(c4cc(C(=O)OC)nc5ccc(Cl)cc45)CC3)ncc2c1Cl [701,237] | >64 | >64 | > 64 | 
6 | CCc1[nH]c2nc(Sc3ccc4cc5c([n+]([O-])c4c3)CCNC5)nc(N3CC4C(C3)C4(N)C(N)=O)c2c1Cl (stereo not drawn) [700,971] | 2 | <=0.5 | > 64 | 
7 | CCc1[nH]c2nc(Oc3cncc(C#N)c3)nc(Oc3cc(O)cc(C#N)c3)c2c1Br [701,268] | <=0.5 | <=0.5 | 4 (≈ 8.38 µM) | 
8 | NC(=O)C1(N)C2CN(c3nc(Sc4cnc5nccnc5c4)nc4[nH]c(C5CC5)c(Cl)c34)CC21 (stereo not drawn) [700,975] | 8 | 8 | > 64 | 
9 | CCOC(=O)/C=C/c1ccc(Sc2nc(N3CC[C@@H](N)C3)c3c(Cl)c(CC)[nH]c3n2)cc1F [700,925] | 32 | 4 | > 64 | 
10 | CCc1[nH]c2nc(Sc3ccc4oc(C)nc4c3)nc(N3CC[C@@H](N)C3)c2c1Cl [701,039] | 8 | 8 | > 64 | 
11 | CCc1[nH]c2nc(Oc3cnc(C)nc3)nc(Oc3cc(C#N)ccc3F)c2c1Br [701,288] | 1 | <=0.5 | > 64 | 
12 | CCc1[nH]c2nc(Sc3cnc4cccnc4c3)nc(N3CC[C@@H](N)C3)c2c1Cl.O=C(O)C(F)(F)F.O=C(O)C(F)(F)F [700,795] | <=0.5 | <=0.5 | 8 | 
13 | CCc1[nH]c2nc(SC)nc(N3CC[C@@H](N)C3)c2c1C#N [701,077] | >64 | >64 | > 64 | 
14 | CCc1[nH]c2nc(Sc3cnc4cccnc4c3)nc(N3CCC(CNS(=O)(=O)c4ccccc4)C3)c2c1Cl (stereo not drawn) [701,045] | 1 | <=0.5 | > 64 | 
15 | CCc1[nH]c2nc(Sc3ccc4[nH]cc(C(=O)OC)c4c3)nc(N3CC[C@@H](N)C3)c2c1Cl [701,062] | 16 | 16 | > 64 | 
16 | CCc1[nH]c2nc(Sc3ccc4c(N5CC(N)C5)ncnc4c3)nc(N3CC[C@@H](N)C3)c2c1Cl [700,942] | 16 | 16 | 8 (≈ 16.1 µM) | 
17 | CCc1[nH]c2nc(Oc3ccc4c(c3)ncc[n+]4[O-])nc(Oc3ccc4c(c3)ncc[n+]4[O-])c2c1Cl [701,057] | 32 | 8 | > 64 | 
18 | CC(C)(C)OC(=O)N[C@@H]1CCN(c2nc(Sc3cnc4nccnc4c3)nc3[nH]c(C4CC4)c(Cl)c23)C1 [700,978] | >64 | >64 | > 64 | 
19 | CCc1[nH]c2nc(Oc3ccc4c(c3)ncc[n+]4[O-])nc(Oc3ccc4nccnc4c3)c2c1Cl [701,061] | <=0.5 | <=0.5 | > 32 | 

Further lines, with some results ahead:

Row | MIC Spn52 (S. pneumoniae ATCC 51916) | MIC, SA (S. aureus ATCC 13709) | MIC EC8 (E. coli 8 ATCC 25922) [µg/mL] | Structure (SMILES) | also measured
20 | 32 | 8 | 64 (≈ 182 µM) | CCc1[nH]c2nc(Oc3cncnc3)nc(N3CC4C(N)C4C3)c2c1C (stereo not drawn) [701,193] | 
21 | <=0.5 | <=0.5 | > 64 | CCc1[nH]c2nc(Sc3ccc4cccnc4c3)nc(N3CC4C(N)C4C3)c2c1Cl (stereo not drawn) [700,992] | 
22 | <=0.5 | <=0.5 | 4 (≈ 8.83 µM) | CCc1[nH]c2nc(Oc3cncnc3)nc(Oc3cc(O)cc(C#N)c3)c2c1Br [701249-2] | 
23 | 4 | <=0.5 | > 64 | CCc1[nH]c2nc(Sc3cncnc3)nc(N3CC4C(C3)C4(N)C(N)=O)c2c1Cl (stereo not drawn) [700,967] | 
24 | 16 | >64 | > 64 | CCc1[nH]c2nc(Sc3cnc4cccnc4c3)nc(N3C[C@H](N)[C@H](C(=O)NCC(C)O)C3)c2c1Cl (stereo partly drawn) [701,018] | 
25 | 4 | 1 | > 64 | CCc1[nH]c2nc(Oc3cncnc3)nc(N3CC(Cc4cncnc4)C3)c2c1Cl [700,909] | 
26 | <=0.5 | <=0.5 | > 64 | CCc1[nH]c2nc(Sc3ccc4nccnc4c3)nc(N3C[C@@H]4C(N)[C@@H]4C3)c2c1Cl (stereo partly drawn) [701,006] | 
27 | 2 | <=0.5 | > 32 | CCc1[nH]c2nc(Oc3ccc4nccnc4c3)nc(N3CC4C(C3)C4(N)C(N)=O)c2c1Br (stereo not drawn) [700,980] | 
28 | 2 | 1 | > 64 | CCc1[nH]c2nc(Oc3cncnc3)nc(Oc3cnc(N)nc3)c2c1Cl [701,241] | 
29 | 8 | 1. | > 64 | CCc1[nH]c2nc(Oc3cncnc3)nc(Oc3ccc4nccnc4c3)c2c1C [701,233] | 
30 | 2 | 1 | 16 (≈ 31.5 µM) | CCc1[nH]c2nc(Sc3ccc4nc(N5CC(N)C5)cnc4c3)nc(N3C[C@@H]4C(N)[C@@H]4C3)c2c1Cl (stereo partly drawn) [701,013] | 
31 | <=0.5 | <=0.5 | 32 (≈ 77.7 µM) | CCc1[nH]c2nc(Sc3ccc4cncnc4c3)nc(N3CC(N)C3)c2c1Cl [701,050] | 
32 | 8 | 4 | > 16 | CCc1[nH]c2nc(Oc3cncnc3)nc(N3CC4C(C3)C4NC(C)=O)c2c1Br (stereo not drawn) [701,052] | 
33 | <=0.5 | <=0.5 | > 64 | CCc1[nH]c2nc(Oc3cncnc3)nc(Oc3cc(N)cc(C#N)c3)c2c1Br [701,250] | 
34 | 2 | 2 | > 64 | CCc1[nH]c2nc(Oc3cncc(C#N)c3)nc(N3CC[C@@H](NC(C)=O)C3)c2c1Cl [700,999] | 
35 | 16 | 4 | > 64 | CCc1[nH]c2nc(Oc3cncc(C(N)=O)c3)ncc2c1Cl [701,265] | 
36 | 1 | <=0.5 | > 64 | CCc1[nH]c2nc(Oc3cncc(C#N)c3)nc(Cc3cccc(C#N)c3)c2c1Cl [700,927] | 
37 | 32 | 8 | > 64 | CCc1[nH]c2nc(Sc3cc(C(=O)O)c4cnccc4c3)nc(N3CC[C@@H](N)C3)c2c1Cl [700,970] | 
38 | 1 | <=0.5 | > 64 | CCc1[nH]c2nc(Sc3cnc4ccc[n+]([O-])c4c3)nc(N3CC(NS(C)(=O)=O)C3)c2c1Cl [701,263] | 
39 | >64 | >64 | > 64 | CCc1[nH]c2nc(Oc3cnc4c(c3)ncn4C)nc(N3CC[C@@H](N)C3)c2c1Cl [701,033] | 
40 | 16 | 32 | 64 (≈ 171 µM) | CCc1[nH]c2nc(Oc3cnc(C)nc3)nc(OC3CCNC3)c2c1Cl (stereo not drawn) [701,291] | 
41 | 1 | <=0.5 | > 64 | CCc1[nH]c2nc(Oc3cncc(OC)c3)nc(Oc3cncc(OC)c3)c2c1Br [700,937] | 
42 | 2 | 1 | > 64 | CCc1[nH]c2nc(Oc3cncnc3)nc(Oc3cccc(CNC)c3)c2c1Cl [701,251] | 
43 | <=0.5 | <=0.5 | > 32 | CCc1[nH]c2nc(Oc3cncnc3)nc(Oc3ccc4c(N5CCOCC5)ncnc4c3)c2c1Br [701,104] | 
44 | 4 | 2 | > 64 | CCc1[nH]c2nc(Oc3ccc4nccnc4c3)nc(N3CCOCC3)c2c1Cl [701,029] | 
45 | 4 | 2 | > 64 | CCc1[nH]c2nc(Oc3cncc(C#N)c3)nc(Oc3ccc4ncnc(N5CC(N)C5)c4c3)c2c1Br [701,298] | 
46 | <=0.5 | <=0.5 | 8 (≈ 17.7 µM) | CCc1[nH]c2nc(Oc3cncnc3)nc(Oc3cc(O)cc(C#N)c3)c2c1Br [701,249] | 
